# Laboratory results taken from patent US10206937B2, “Boronic acid derivatives and therapeutic uses thereof” (Qpex Biopharma, Inc., priority 2014, dated 2019).
# Test system: strains of Enterobacteriaceae producing various carbapenemases (class A, D and B; 169 strains)
# Test: Meropenem or tebipenem potentiation by Compounds 97 or 62 (MIC)
# Assay type: cell-based
# In short: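 Meropenem and tebipenem MICs measured alone or with Compound 97 or 62 held at a fixed 8 μg/ml in the growth medium. Panel of 169 clinical Enterobacteriaceae isolates expressing class A, D and B carbapenemases, alone or with other beta-lactamases.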
structure (smiles),measurement,setting,value
C[C@@H](O)[C@H]1C(=O)N2C(C(=O)O)=C(SC3CN(C4=NCCS4)C3)[C@H](C)[C@H]12 [T],Tebipenem MIC alone (T),"KP1182 Klebsiella pneumoniae SHV-OSBL(2b), NDM-1, OXA-232(c)",Z (MIC of greater than 10 μg/mL)
same,Tebipenem MIC alone (T),"KP1183 Klebsiella pneumoniae SHV-OSBL(2b), TEM-OSBL(2b), CTX-M-15, NDM-1",Z (MIC of greater than 10 μg/mL)
same,Tebipenem MIC alone (T),"KP1184 Klebsiella pneumoniae SHV-OSBL(2b), IMP-1",Y (MIC of 1 μg/mL to 10 μg/mL)
same,Tebipenem MIC alone (T),"KP1185 Klebsiella pneumoniae SHV-OSBL(2b), TEM-OSBL(2b), IMP-4",Z (MIC of greater than 10 μg/mL)
same,Tebipenem MIC alone (T),"KP1186 Klebsiella pneumoniae CTX-M-15, NDM-1",Z (MIC of greater than 10 μg/mL)
same,Tebipenem MIC alone (T),"KP1187 Klebsiella pneumoniae SHV-55(2be), TEM-OSBL(2b), CTX-M-15, NDM-1",Z (MIC of greater than 10 μg/mL)
same,Tebipenem MIC alone (T),"KP1188 Klebsiella pneumoniae SHV-OSBL(2b), CTX-M-15, NDM-1",Z (MIC of greater than 10 μg/mL)
same,Tebipenem MIC alone (T),"KP1189 Klebsiella pneumoniae TEM-OSBL(2b), CTX-M-15, CTX-M-27, NDM-1",Z (MIC of greater than 10 μg/mL)
same,Tebipenem MIC alone (T),KP1190 Klebsiella pneumoniae KPC-4 VIM-4 TEM SHV,Z (MIC of greater than 10 μg/mL)
same,Tebipenem MIC alone (T),KP1191 Klebsiella pneumoniae KPC-2,Z (MIC of greater than 10 μg/mL)
same,Tebipenem MIC alone (T),KP1192 Klebsiella pneumoniae KPC-2 TEM SHV,Z (MIC of greater than 10 μg/mL)
same,Tebipenem MIC alone (T),KP1193 Klebsiella pneumoniae KPC-3 TEM SHV,Z (MIC of greater than 10 μg/mL)
same,Tebipenem MIC alone (T),KP1194 Klebsiella pneumoniae KPC TEM SHV,Z (MIC of greater than 10 μg/mL)
same,Tebipenem MIC alone (T),KP1195 Klebsiella pneumoniae KPC TEM CTX-M-15,Z (MIC of greater than 10 μg/mL)
same,Tebipenem MIC alone (T),KP1196 Klebsiella pneumoniae KPC TEM SHV CTX-M-15 CMY,Z (MIC of greater than 10 μg/mL)
same,Tebipenem MIC alone (T),"KP1197 Klebsiella pneumoniae KPC-3, VIM-1 TEM SHV",Z (MIC of greater than 10 μg/mL)
same,Tebipenem MIC alone (T),"KP1198 Klebsiella pneumoniae KPC-3, VIM-1 TEM SHV",Z (MIC of greater than 10 μg/mL)
same,Tebipenem MIC alone (T),KP1199 Klebsiella pneumoniae KPC-3 TEM SHV,Z (MIC of greater than 10 μg/mL)
same,Tebipenem MIC alone (T),KP1200 Klebsiella pneumoniae KPC-3 TEM SHV,Z (MIC of greater than 10 μg/mL)
same,Tebipenem MIC alone (T),KP1210 Klebsiella pneumoniae KPC SHV TEM,Z (MIC of greater than 10 μg/mL)
same,Tebipenem MIC alone (T),KP1211 Klebsiella pneumoniae KPC SHV TEM CTX-M-15,Z (MIC of greater than 10 μg/mL)
same,Tebipenem MIC alone (T),KP1212 Klebsiella pneumoniae KPC SHV TEM CTX-M-15,Z (MIC of greater than 10 μg/mL)
same,Tebipenem MIC alone (T),KP1213 Klebsiella pneumoniae KPC SHV TEM CTX-M-15,Z (MIC of greater than 10 μg/mL)
same,Tebipenem MIC alone (T),KP1214 Klebsiella pneumoniae KPC SHV TEM + 1.9 kb,Z (MIC of greater than 10 μg/mL)
same,Tebipenem MIC alone (T),KP1215 Klebsiella pneumoniae KPC SHV,Z (MIC of greater than 10 μg/mL)
same,Tebipenem MIC alone (T),KP1216 Klebsiella pneumoniae KPC SHV TEM + 1.9 kb,Z (MIC of greater than 10 μg/mL)
same,Tebipenem MIC alone (T),KP1217 Klebsiella pneumoniae KPC SHV TEM + 1.9 kb,Z (MIC of greater than 10 μg/mL)
same,Tebipenem MIC alone (T),KP1218 Klebsiella pneumoniae KPC SHV TEM + 1.9 kb,Z (MIC of greater than 10 μg/mL)
same,Tebipenem MIC alone (T),KP1219 Klebsiella pneumoniae KPC SHV TEM + 1.9 kb,Z (MIC of greater than 10 μg/mL)
same,Tebipenem MIC alone (T),KP1220 Klebsiella pneumoniae KPC SHV TEM + 1.9 kb,Z (MIC of greater than 10 μg/mL)
same,Tebipenem MIC alone (T),KP1221 Klebsiella pneumoniae KPC SHV TEM + 1.9 kb,Z (MIC of greater than 10 μg/mL)
same,Tebipenem MIC alone (T),KP1222 Klebsiella pneumoniae KPC SHV TEM IMP,Z (MIC of greater than 10 μg/mL)
same,Tebipenem MIC alone (T),KP1223 Klebsiella pneumoniae KPC SHV TEM,Z (MIC of greater than 10 μg/mL)
same,Tebipenem MIC alone (T),KP1224 Klebsiella pneumoniae KPC SHV TEM,Z (MIC of greater than 10 μg/mL)
same,Tebipenem MIC alone (T),KP1225 Klebsiella pneumoniae KPC SHV TEM + 1.9 kb CMY,Z (MIC of greater than 10 μg/mL)
same,Tebipenem MIC alone (T),KP1226 Klebsiella pneumoniae KPC SHV TEM + 1.9 kb,Z (MIC of greater than 10 μg/mL)
same,Tebipenem MIC alone (T),KP1227 Klebsiella pneumoniae KPC SHV TEM CTX-M-15,Z (MIC of greater than 10 μg/mL)
same,Tebipenem MIC alone (T),KP1228 Klebsiella pneumoniae OXA-48 TEM SHV CTX-M-15,Y (MIC of 1 μg/mL to 10 μg/mL)
same,Tebipenem MIC alone (T),KP1229 Klebsiella pneumoniae OXA-48 TEM SHV CTX-M-15,Z (MIC of greater than 10 μg/mL)
same,Tebipenem MIC alone (T),KP1230 Klebsiella pneumoniae OXA-48 TEM SHV CTX-M-15,Y (MIC of 1 μg/mL to 10 μg/mL)
same,Tebipenem MIC alone (T),KP1231 Klebsiella pneumoniae OXA-48 TEM SHV CTX-M-15,Y (MIC of 1 μg/mL to 10 μg/mL)
same,Tebipenem MIC alone (T),KP1232 Klebsiella pneumoniae OXA-48 TEM SHV CTX-M-15,Z (MIC of greater than 10 μg/mL)
same,Tebipenem MIC alone (T),KP1234 Klebsiella pneumoniae OXA-48 TEM SHV CTX-M-15,Z (MIC of greater than 10 μg/mL)
same,Tebipenem MIC alone (T),KP1236 Klebsiella pneumoniae OXA-48 TEM SHV CTX-M-15,Z (MIC of greater than 10 μg/mL)
same,Tebipenem MIC alone (T),"PM1024 Proteus mirabilis TEM-1(2b), CMY-16, VIM-1",Z (MIC of greater than 10 μg/mL)
same,Tebipenem MIC alone (T),"PM1025 Proteus mirabilis SHV-5(2be), TEM-OSBL(2b), VEB-2, VIM-1",Y (MIC of 1 μg/mL to 10 μg/mL)
same,Tebipenem MIC alone (T),"PM1026 Proteus mirabilis DHA-1, IMP-26",Y (MIC of 1 μg/mL to 10 μg/mL)
same,Tebipenem MIC alone (T),PM1027 Proteus mirabilis VIM-5,Z (MIC of greater than 10 μg/mL)
same,Tebipenem MIC alone (T),SM1023 Serratia marcescens VIM-4,Z (MIC of greater than 10 μg/mL)
same,Tebipenem MIC alone (T),"SM1024 Serratia marcescens TEM-1(2b), IMP-47",Y (MIC of 1 μg/mL to 10 μg/mL)
